Results from patent publication US6235731A, “Fused imidazopyridine derivatives as antihyperlipidemic agents” (Takeda Chemical Industries, Ltd., priority 1996, dated 2001).
Counter-ions that a name gives are not always drawn. Like-named read-outs stand apart in the source and are kept apart here.

Tests used:
[1] = test system: HepG2 cells; test: Increase in LDL-binding to HepG2 cells; format: cell-based; conditions: 10 μM test compound, 20 hours, specific human [125I]LDL binding, normalized by protein, read-out: LDL binding (% of control)
Protocol: Increase in LDL-binding to HepG2 cells LDL-binding was measured according to the method of J. L. Goldstein. HepG2 cells were purchased from ATCC (American type culture collection) and seeded in 6-well plate with collagen coating (Sumitomo Bakelite), and cultured in Eagle's minimum essential medium (MEM) containing 10%-fetal bovine serum at 37° C. for 4 days. […] After washing with phosphate buffered saline cells were incubated with MEM containing 25 mM-HEPES and 1%-bovine serum albumin (fatty acid free) in the presence of human [^125 I]LDL (4 μg/ml) at 6° C. for 2 hours. After washing cells bound [^125 I]LDL was dissociated with dextran sulfate and the radioactivity was measured (total binding). [^125 I]LDL binding to cells was also measured in the presence of LDL (300 μg/ml) as a non-specific binding (NSB). Specific [^125 I]LDL-binding was calculated by subtracting NSB from total binding and was normalized by protein content measured by the method of lowry. Data was expressed as percentage of the control.

[2] = test system: Golden Syrian hamsters; test: Cholesterol lowering activity in Golden hamster; format: in vivo, Golden Syrian hamster; conditions: Mesocricetus auratus, po, 96 h, 20 mg/kg/d orally, once daily for 4 days
Protocol: Cholesterol lowering activity in Golden hamster Male Golden Syrian hamsters (110-130 g) were maintained freely on water and a laboratory diet (CE-2, Clea Japan Inc., Tokyo). […] Blood was taken from orbital sinus and plasma total cholesterol and triglyceride were measured an automatic analyzer (Hitachi 7070, Hitachi Ltd., Tokyo) using commercial kits (Wako Pure Chemical Industries, Osaka), and plasma HDL-cholesterol using a commercial kit (Kyowa Medex Co., Ltd., Tokyo) before and after the treatment of compound. Non-HDL cholesterol was calculated by subtracting HDL-cholesterol from total cholesterol. |Non-HDL-C (non-HDL-cholesterol): [total cholesterol]-[HDL-cholesterol] |TG: triglyceride

[3] = plasma triglyceride, read-out: TG (% of control)
[4] = plasma, [total cholesterol]-[HDL-cholesterol], read-out: Non-HDL-C (% of control)

For `O=C(C1=Cc2cnc3cccc(n23)S1)N(Cc1ccccc1)CC1CCN(CCCc2ccccc2)CC1` [Example 52, N-benzyl-N-[1-(3-phenylpropan-1-yl)piperidin-4-ylmethyl]-5-thia-1,8b-diazaacenaphthylene Dihydrochloride], the activity at 10 µM [1] was 183%.
Work on `O=C(C=CC1=Cc2cnc3cccc(n23)S1)NCC1CCN(CCCc2ccccc2)CC1` [Example 9, N-[1-(3-phenylpropan-1-yl)piperidin-4-ylmethyl]-3-(5-thia-1,8b-diazaacenaphthylen-4-yl)acrylamide dihydrochloride] yielded an activity at 10 µM [1] of 247%, a response vs control in vivo at 20 mg/kg [2, 3] of 67% and a response vs control in vivo at 20 mg/kg [2, 4] of 62.3%.
With `O=C(NCC1CCN(CC2COc3ccccc3O2)CC1)C1=Cc2cnc3cccc(n23)S1` (centres unmarked) [Example 3, N-[1-(1,4-benzodioxan-2-ylmethyl)piperidin-4-ylmethyl]-5-thia-1,8b-diazaacenaphthylene-4-carboxamide dihydrochloride] the activity at 10 µM [1] was 194%, the response vs control in vivo at 20 mg/kg [2, 3] was 91.3% and the response vs control in vivo at 20 mg/kg [2, 4] was 69.5%.
Molecule `O=C(NCCN1CCN(CCCc2ccccc2)CC1)C1=Cc2cnc3cccc(n23)S1` [Example 58, N-[2-(4-(3-phenylpropan-1-yl)piperazin-1-yl)ethan-1-yl]-5-thia-1,8b-diazaacenaphthylene-4-carboxamide Trihydrochloride] has a response vs control in vivo at 20 mg/kg [2, 3] of 71.2% and a response vs control in vivo at 20 mg/kg [2, 4] of 74%.
For `O=C(NCCCCN1CCc2ccccc2C1)C1=Cc2cnc3cccc(n23)S1` [Example 34, N-[4-(1,2,3,4-tetrahydroisoquinolin-2-yl)butan-1-yl]-5-thia-1,8b-diazaacenaphthylene-4-carboxamide Dihydrochloride], the response vs control in vivo at 20 mg/kg [2, 3] was 74.7% and the response vs control in vivo at 20 mg/kg [2, 4] was 72.2%.
With `O=C(NC1CCN(CCCc2ccccc2Cl)CC1)C1=Cc2cnc3cccc(n23)S1` [Example 39, N-[1-[3-(2-chlorophenyl)propan-1-yl]piperidin-4-yl]-5-thia-1,8b-diazaacenaphthylene-4-carboxamide dihydrochloride] the response vs control in vivo at 20 mg/kg [2, 3] was 62.6% and the response vs control in vivo at 20 mg/kg [2, 4] was 62.7%.
`O=C(C=CC1=Cc2cnc3cccc(n23)S1)NC1CCN(CCCc2ccccc2)CC1` [Example 10, N-[1-(3-phenylpropan-1-yl)piperidin-4-yl]-3-(5-thia-1,8b-diazaacenaphthylen-4-yl)acrylamide dihydrochloride] showed an activity at 10 µM [1] of 169%, a response vs control in vivo at 20 mg/kg [2, 3] of 70.8% and a response vs control in vivo at 20 mg/kg [2, 4] of 61%.
In the case of `O=C(NCC1CCN(CCCc2ccccc2F)CC1)C1=Cc2cnc3cccc(n23)S1` [Example 67, N-[1-(3-(2-fluorophenyl)propan-1-yl)piperidin-4-ylmethyl]-5-thia-1,8b-diazaacenaphthylene-4-carboxamide Dihydrochloride], the activity at 10 µM [1] is reported as 162%, the response vs control in vivo at 20 mg/kg [2, 3] is reported as 67.9% and the response vs control in vivo at 20 mg/kg [2, 4] is reported as 62%.
`O=C(NCCCCN1CCN(Cc2ccccc2)CC1)C1=Cc2cnc3cccc(n23)S1` [Example 32, N-[4-(4-benzyl-1-piperazinyl)butan-1-yl]-5-thia-1,8b-diazaacenaphthylene-4-carboxamide Trihydrochloride] showed a response vs control in vivo at 20 mg/kg [2, 3] of 76.5% and a response vs control in vivo at 20 mg/kg [2, 4] of 76.6%.
`O=C(NCC1CCN(CCCc2cccc(F)c2)CC1)C1=Cc2cnc3cccc(n23)S1` [Example 74, N-[1-(3-(3-fluorophenyl)propan-1-yl)piperidin-4-ylmethyl]-5-thia-1,8b-diazaacenaphthylene-4-carboxamide Dihydrochloride] showed a response vs control in vivo at 20 mg/kg [2, 3] of 67.9% and a response vs control in vivo at 20 mg/kg [2, 4] of 73.5%.
`O=C(NCCCCN1CCC(Cc2ccccc2)CC1)C1=Cc2cnc3cccc(n23)S1` [Example 28, N-[4-(4-benzylpiperidin-1-yl)butan-1-yl]-5-thia-1,8b-diazaacenaphthylene-4-carboxamide Dihydrochloride] gave an activity at 10 µM [1] of 194%, a response vs control in vivo at 20 mg/kg [2, 3] of 61.3% and a response vs control in vivo at 20 mg/kg [2, 4] of 62.9%.
In the case of `O=C(NCC1CCN(C[C@H]2COc3ccccc3O2)CC1)C1=Cc2cnc3cccc(n23)S1` [Example 2, (S)-N-[1-(1,4-benzodioxan-2-ylmethyl)piperidin-4-ylmethyl]-5-thia-1,8b-diazaacenaphthylene-4-carboxamide], the activity at 10 µM [1] is reported as 172%, the response vs control in vivo at 20 mg/kg [2, 3] is reported as 102% and the response vs control in vivo at 20 mg/kg [2, 4] is reported as 65.1%.
Work on `O=C(NCC1CCN(C[C@@H]2COc3ccccc3O2)CC1)C1=Cc2cnc3cccc(n23)S1` [Example 1, (R)-N-[1-(1,4-benzodioxan-2-ylmethyl)piperidin-4-ylmethyl]-5-thia-1,8b-diazaacenaphthylene-4-carboxamide dihydrochloride] yielded an activity at 10 µM [1] of 203%, a response vs control in vivo at 20 mg/kg [2, 3] of 78.4% and a response vs control in vivo at 20 mg/kg [2, 4] of 68.6%.
Work on `O=C(NCCCN1CCN(Cc2ccccc2)CC1)C1=Cc2cnc3cccc(n23)S1` [Example 33, N-[3-(4-benzyl-1-piperazinyl)propan-1-yl]-5-thia-1,8b-diazaacenaphthylene-4-carboxamide Trihydrochloride] yielded a response vs control in vivo at 20 mg/kg [2, 3] of 85.6% and a response vs control in vivo at 20 mg/kg [2, 4] of 77.1%.
Work on `O=C(NC1CCN(CCCc2ccccc2)CC1)C1=Cc2cnc3cccc(n23)S1` [Example 36, N-[1-(3-phenylpropan-1-yl)piperidin-4-yl]-5-thia-1,8b-diazaacenaphthylene-4-carboxamide Dihydrochloride] yielded an activity at 10 µM [1] of 218%, a response vs control in vivo at 20 mg/kg [2, 3] of 74.7% and a response vs control in vivo at 20 mg/kg [2, 4] of 61.9%.
For `O=C(NCC1CCN(CCc2ccccc2F)CC1)C1=Cc2cnc3cccc(n23)S1` [Example 68, N-[1-(2-fluorophenethyl)piperidin-4-ylmethyl]-5-thia-1,8b-diazaacenaphthylene-4-carboxamide Dihydrochloride], the response vs control in vivo at 20 mg/kg [2, 3] was 74.3% and the response vs control in vivo at 20 mg/kg [2, 4] was 58.5%.
Molecule `COc1ccccc1CCCN1CCC(CNC(=O)C2=Cc3cnc4cccc(n34)S2)CC1` [Example 80, N-[1-(3-(2-methoxyphenyl)propan-1-yl)piperidin-4-ylmethyl]-5-thia-1,8b-diazaacenaphthylene-4-carboxamide Dihydrochloride] has an activity at 10 µM [1] of 248%.
Work on `O=C(NCCCN1CCC(Cc2ccccc2)CC1)C1=Cc2cnc3cccc(n23)S1` [Example 29, N-[3-(4-benzylpiperidin-1-yl)propan-1-yl]-5-thia-1,8b-diazaacenaphthylene-4-carboxamide Dihydrochloride] yielded a response vs control in vivo at 20 mg/kg [2, 3] of 73.9% and a response vs control in vivo at 20 mg/kg [2, 4] of 68.1%.
`O=C(NCC1CCN(CCCOc2ccc(F)cc2)CC1)C1=Cc2cnc3cccc(n23)S1` [Example 113, N-[1-(3-(4-fluorophenoxy)propan-1-yl)piperidin-4-ylmethyl]-5-thia-1,8b-diazaacenaphthylene-4-carboxamide Dihydrochloride] showed an activity at 10 µM [1] of 140%.
`O=C(NCCCC1CCN(CCCc2ccccc2)CC1)C1=Cc2cnc3cccc(n23)S1` [Example 46, N-[3-(1-(3-phenylpropan-1-yl)piperidin-4-yl)propan-1-yl]-5-thia-1,8b-diazaacenaphthylene-4-carboxamide Dihydrochloride] was tested, and the activity at 10 µM [1] was 166%, the response vs control in vivo at 20 mg/kg [2, 3] was 72.4% and the response vs control in vivo at 20 mg/kg [2, 4] was 69.6%.
In the case of `O=C(NCC1CCN(CCCc2ccc(F)cc2F)CC1)C1=Cc2cnc3cccc(n23)S1` [Example 76, N-[1-(3-(2,4-difluorophenyl)propan-1-yl)piperidin-4-ylmethyl]-5-thia-1,8b-diazaacenaphthylene-4-carboxamide Dihydrochloride], the activity at 10 µM [1] is reported as 282%, the response vs control in vivo at 20 mg/kg [2, 3] is reported as 58.1% and the response vs control in vivo at 20 mg/kg [2, 4] is reported as 74%.
`O=C(NCC1CCN(CCCOc2ccc(F)cc2F)CC1)C1=Cc2cnc3cccc(n23)S1` [Example 117, N-[1-(3-(2,4-difluorophenoxy)propan-1-yl)piperidin-4-ylmethyl]-5-thia-1,8b-diazaacenaphthylene-4-carboxamide Dihydrochloride] showed an activity at 10 µM [1] of 137%.
For `O=C(NCCCCN1CCC(c2ccccc2)CC1)C1=Cc2cnc3cccc(n23)S1` [Example 26, N-[4-(4-phenylpiperidin-1-yl)butan-1-yl]-5-thia-1,8b-diazaacenaphthylene-4-carboxamide Dihydrochloride], the activity at 10 µM [1] was 189%, the response vs control in vivo at 20 mg/kg [2, 3] was 82% and the response vs control in vivo at 20 mg/kg [2, 4] was 66.4%.
`O=C(NCC1CCN(CCc2ccc(F)cc2)CC1)C1=Cc2cnc3cccc(n23)S1` [Example 70, N-[1-(4-fluorophenethyl)piperidin-4-ylmethyl]-5-thia-1,8b-diazaacenaphthylene-4-carboxamide Dihydrochloride] gave a response vs control in vivo at 20 mg/kg [2, 3] of 71.2% and a response vs control in vivo at 20 mg/kg [2, 4] of 47.9%.
Work on `O=C(NCC1CCN(CCCc2ccccc2Cl)CC1)C1=Cc2cnc3cccc(n23)S1` [Example 77, N-[1-(3-(2-chlorophenyl)propan-1-yl)piperidin-4-ylmethyl]-5-thia-1,8b-diazaacenaphthylene-4-carboxamide Dihydrochloride] yielded an activity at 10 µM [1] of 168%.
